# Reference: patent US4202902A, “Lipogenesis control by cyclopropane-carboxylic acids, esters and amides” (Shell Oil Company, priority 1979, dated 1980)
# How the values were obtained:
# swine adipose tissue = experiment: In vitro inhibition of lipogenesis (incorporation of radioactive glucose carbon into lipid) in swine adipose tissue slices; format: cell-based; conditions: Sus scrofa, 100 micrograms per milliliter, 37° C., 2 hours, 5% DMSO, compared to control without test compound, triplicate, read-out: Percent Inhibition of lipogenesis
# Source text: The manner in which they cause this effect is not known with certainty; it is believed that they interfere with the synthesis of fatty acids in the tissue. Their effectiveness for this purpose has been ascertained by immersing samples of swine adipose tissue in a liquid medium containing radioactive glucose and the test chemical for a period time, then isolating the lipid from the treated tissue and determining the incorporation of the ratioactive carbon into the lipid by means of scintillation counting techniques. These tests were conducted in swine adipose tissue because in swine the primary site of lipogenesis--i.e., fatty acid synthesis--appears to be adipose tissue.
# Described in more detail, the tests were conducted according to the following general procedure.
# 150 milligrams of slices of swine adipose tissue were incubated at 37° C. for 2 hours with shaking in 3 milliliters of Krebs-Ringer bicarbonate solution containing one-half the usual calcium ion concentration, 60 micromoles of glucose, 0.5 microCurie of glucose-U^14 C, and 100 milliunits of insulin, and 5% dimethyl sulfoxide (DMSO). The test compounds were added as a solution or suspension in DMSO and were present at a concentration of 100 micrograms per milliliter of the incubation mixture.
# The incubation was terminated by addition of 0.25 milliliter of 1 N sulfuric acid. The resulting mixture was extracted with a total of 25 milliliters of chloroform:methanol (2:1 v/v). The extracts were washed according to Folch et al. (J. Biol. Chem., 226, 497-509, (1957)), air dried, and counted in a liquid scintillation counter with 15 milliliters of counting fluid (two parts toluene containing 0.4% w/v New England Nuclear Omnifluor: 1 part Triton X-100). The tests were conducted in triplicate and were accompanied by control tests in which all ingredients,proportions and conditions were the same except that no test compound was included. From the data obtained were calculated the percent inhibition of lipid synthesis by the test compound in each case. The data obtained from these tests were set out in Table I, as the percent inhibition of lipogenesis compared to the results obtained in the control tests wherein only the test compound was omitted.
# [1] = test system: swine adipose tissue lipid synthesis; experiment: In vivo inhibition of swine adipose tissue lipid synthesis (pigs dosed in feed, biopsy slices incubated with radioactive glucose); conditions: approx. 25 mg/kg per day for seven days in ration, compared to control animals; for lipogenic rate after 2 weeks: biopsy 1 week after withdrawal of drug; for effect on lipogenesis after 1 week: biopsy after 1 week of drug administration
# Experimental: Compounds 1 and 6 were tested to determine the in vivo inhibition of swine adipose tissue lipid synthesis, as follows: pigs weighing about 20 kilograms were administered a fixed drug dose of approximately 25 milligrams of drug per kilogram of animal body weight per day for seven consecutive days. The drug was formulated to contain 10%w active ingredient and was prepared as coarse granules using 4%w plasdene as the granulating agent and lactose as the carrier. […] The daily drug or placebo dose was added to 1.2 kilograms of swine ration; about one-third of the total was fed at 0800, 1200, and 1600 hours. Biopsy samples were obtained from the dorsal subcutaneous adipose tissue (ca 1 gram) in the neck region before drug administration, after 1 week of drug administration, and 1 week after withdrawal of drug. Adipose tissue slices were prepared from the biopsy sample, and in vitro lipogenesis was determined with radioactive glucose as substrate. The incubation was similar to that previously described except that there was no DMSO or test compound in the flasks.
Structure (SMILES),inhibition at 100 µg/mL (swine adipose tissue) [%],lipogenic rate after 2 weeks [1],effect on lipogenesis after 1 week [1]
"CCCCCCCCC[C@@H]1C[C@H]1C(=O)O (relative stereo) [Compound 5, 2-Nonylcyclopropanecarboxylic acid (trans)]",79,–,–
"N#CC1(C(=O)O)CC1c1ccccc1 (stereo not drawn) [Compound 11, 1-Cyano-2-phenylcyclopropanecarboxylic acid]",49,–,–
"CCCCCCCCC[C@@H]1C[C@H]1C(N)=O (relative stereo) [Compound 8, 2-Nonylcyclopropanecarboxycarboxamide (trans)]",34,–,–
"CCCCCCC1CC1(C#N)C(=O)OCC (stereo not drawn) [Compound 10, Ethyl 1-cyano-2-hexylcyclopropanecarboxylate (trans-)]",44,–,–
"CCCCCCCCCCCCCC[C@@H]1C[C@H]1C(=O)O (relative stereo) [Compound 7, 2-tetradecylcyclopropanecarboxylic acid (trans)]",46,–,–
"CCOC(=O)C1CC1(C#N)c1ccccc1 (stereo not drawn) [Compound 14, Ethyl 2-cyano-2-phenylcyclopropanecarboxylate]",53,–,–
"O=C(O)[C@@H]1C[C@H]1c1ccccc1 (relative stereo) [Compound 13, 2-phenylcyclopropane-1-carboxylic acid (trans)]",32,–,–
"CCOC(=O)C1(C#N)CC1c1ccccc1 (stereo not drawn) [Compound 9, Ethyl 1-cyano-2-phenylcyclopropanecarboxylate]",57,–,–
"CCCCCCCCC[C@@H]1C[C@H]1C(=O)OCC (relative stereo) [Compound 2, Ethyl 2-nonylcyclopropanecarboxylate (trans-)]",27,–,–
"CCCCCCCC[C@@H]1C[C@H]1C(N)=O (relative stereo) [Compound 4, 2-Octylcyclopropanecarboxamide (trans)]",> 20,–,–
"CCCCC1CC1C(=O)OCC (stereo not drawn) [Compound 3, Ethyl 2-butylcyclopropanecarboxylate]",24,–,–
"CCCCCCCC[C@@H]1C[C@H]1C(=O)OCC (relative stereo) [Compound 1, Ethyl 2-octylcyclopropanecarboxylate (trans)]",> 20,significantly reduced the lipogenic rate,neither of the test compounds had significantly affected lipogenesis
"CCOC(=O)C1CC1COC(C)=O (stereo not drawn) [Compound 12, Ethyl 2-((acetyloxy)methyl)cyclopropanecarboxylate]",31,–,–
"CCCCCCCC[C@@H]1C[C@H]1C(=O)O (relative stereo) [Compound 6, 2-octylcyclopropanecarboxylic acid (trans)]",77,significantly reduced the lipogenic rate,neither of the test compounds had significantly affected lipogenesis
